Measured values from US20240335395A1, “COMPOSITIONS AND METHODS FOR PREVENTING AND/OR TREATING DISEASE ASSOCIATED WITH IL-23 EXPRESSION” (ALLSPIM, priority 2021, published 2024).

What was measured:
[1] = tested on: Balb/c to C57BL/6 skin graft; experiment: Balb/c to C57BL/6 full-thickness skin graft survival; format: in vivo, mouse; settings: oral, bid
Method: Skin transplantation. Murine full-thickness allo-skin transplantation to study graft rejection was conducted according to a previously well-described protocol (Cheng et al, 2017). All procedures were conducted in accordance with the Guide for the Care and Use of Laboratory Animals of the National Institute of Health (NIH) and were approved by the animal ethics committee of Guangzhou University of Chinese Medicine.
Briefly, donor mice (Balb/c) were anesthetized with isoflurane (induction vaporizer at 4%, maintenance at 1-2% through the mouse cone). The toe pinch withdrawal reflex was used to monitor the depth of anesthesia. The back of the animal was shaved with an electric razor and disinfected with 10% povidone iodine. Using sterile scissors, gloves, and aseptic technique, donor back skin was harvested from the hip to the neck with blunt dissection at the level of the areolar connective tissue. After harvesting the skin graft, the animal was euthanized by cervical dislocation. Under a microscope, the connective tissue, fat tissue, and panniculus carnosus were separated from the back skin using fine tenotomy scissors. Using sterile technique, 15-mm×15-mm grafts were cut out from the back skin for a 10-mm×10-mm to 15-mm×15-mm graft bed (10 grafts were obtained from one donor mouse). The grafts were stored on gauze soaked with sterile phosphate-buffered saline (PBS) in a petri dish on ice.
The recipient mice (C57BL/6) were anesthetized with isoflurane. Buprenorphine (0.02 mg/kg) was administrated for postoperative pain relief. The side of the back of the animal where the graft will be inserted was shaved and disinfected with 10% povidone iodine. A 10-mm×10-mm to 15-mm×15-mm square of skin was intersected using scissors. The defect size was slightly larger (10%) than the graft. The graft was positioned on the graft bed avoiding folds along the edges. Eight sutures were placed on the corners and on the middle of each edge. […] When the graft was considered as successful, it was then monitored daily for signs of rejection. […]

[2] = tested on: MSU-induced knee joint edema; experiment: MSU-induced knee joint edema in mice; format: in vivo, mouse; settings: 20 h
Method: 2,4-D, isolated and purified from Chloranthus spicatus (purity≥98%), was purchased from BOC Science (Shirley, NY). Colchicine (CLC) (purity≥96%) and dexamethasone (DEX) (purity≥98%) were purchased from Sigma. Mice (six per group) were treated with 2,4-D (100 mg/kg or 20 mg/kg, i.p.), CLC (1 mg/kg or 0.2 mg/kg, i.p.), DEX (0.5 mg/kg or 0.1 mg/kg, i.p.), or vehicle (20% polyoxyethylenesorbitan monooleate (Tween 80) plus PBS) 30 min before intra-articular stimulus with MSU (100 μg/10 μL, i.a.). Six mice with intra-articular injection with PBS alone served as a negative control.
Preparation of monosodium urate crystal (MSU). MSU crystals were prepared as described previously (Ruiz-Miyazawa et al., 2017). Briefly, 800 mg of monosodium urate was dissolved in 155 ml of boiling milli-Q water containing 2N NaOH. After pH adjustment to 8.9, the solution was cooled gradually by stirring at room temperature and crystallized overnight at 4° C. Crystals were collected, and centrifuged at 3,000×g for 2 min at 4° C. The crystals were evaporated and sterilized by heating at 180° C. for 2 h and stored in a sterile environment until use. The load of endotoxin present in the MSU crystals was determined using a ToxinSensor^TM Single Test Kit (GenScript).
Induction of MSU-Induced Knee Joint Inflammation. Male ICR (CD-1) mice (35-45 g, 10-12 weeks) were purchased from VitalRiver Inc (Beijing, China) and were kept in an animal care facility under controlled temperature of 21±1° C., humidity, and on a light/dark cycle, with ad libitum access to water and standard laboratory chow diet. Animal care and handling procedures were approved by the Animal Ethics Committee of GZUCM (Guangzhou University of Chinese Medicine). All efforts were made to minimize animal suffering and to reduce the number of animals used. Joint inflammation was induced by the intra-articular (i.a.) administration of MSU (200 μg/20 μl) into the right and left knee joints of mice under inhaled 3% isoflurane anesthesia. Control animals received an injection (i.a.) of sterile PBS (20 μL).
Evaluation of Knee Joint Edema. Knee joint edema was determined with a caliper (Mitutoyo) before (zero time), and after the intra-articular injection with MSU at the times indicated. Knee joint edema was determined for each mouse by the difference between the time points indicated on figures and the zero time (Ruiz-Miyazawa et al, 2017). The edema value is represented as Amm/joint.
Statistical Analysis. Data were analyzed using GraphPad Prism statistical software (GraphPad Software, Inc., United States-500.288, version 5.0). Results are presented as means±SEM or SD of measurements made on 6 mice per group, with statistical significance determined by two-way ANOVA, comparing each group to the control (“Model”) group. For in vitro experiments, microassays were performed in quadruplicate. p<0.05 was considered significant (*p<0.05, **p<0.01, ***p<0.001).

`COc1cc(O)c(OC)c(O)c1C(=O)/C=C/c1ccccc1` [2,4-D, 2′,4′-dihydroxy-3′,6′-dimethoxychalcone] gave a median graft survival ([1]; 2 mg/kg) of 15 days, a median graft survival ([1]; 10 mg/kg) of 19 days and a median graft survival ([1]; 50 mg/kg) of 24 days. The “reduction of MSU-induced knee joint edema” value ([2]; high dose i.p.: 2,4-D 100 mg/kg, CLC 1 mg/kg, DEX 0.5 mg/kg) was 68.4% and the “reduction of MSU-induced knee joint edema” value ([2]; low dose i.p.: 2,4-D 20 mg/kg, DEX 0.1 mg/kg) was 45.3%.
